From DBAASP
Converted amounts (≈) assume the structure as drawn. Values belong to the compound of their own block, whether it stands above or below them.

What was measured:
Test in all cases: ≥ marks a high value that may be exact or a test limit, other limits are often not marked, values filed in µg/mL are converted to µM
[1] = tested on: Aspergillus flavus LM247
[2] = tested on: Aspergillus flavus LM26
[3] = tested on: Candida albicans LM106
[4] = tested on: Candida albicans LM108
[5] = tested on: Candida tropicalis ATCC 13803
[6] = tested on: Trichophyton rubrum LM640
[7] = tested on: Bacillus subtilis SMY
[8] = tested on: Bacillus subtilis
[9] = tested on: Candida albicans ATCC 90028
[10] = tested on: Candida albicans
[11] = tested on: Candida parapsilosis ATCC 22019
[12] = tested on: Cryptococcus neoformans
[13] = tested on: Enterococcus faecium ATCC 19434
[14] = tested on: Escherichia coli ATCC 23716
[15] = tested on: Escherichia coli O157:H7 ATCC 43895
[16] = tested on: Escherichia coli
[17] = tested on: Pseudomonas aeruginosa 1
[18] = tested on: Pseudomonas aeruginosa ATCC 27853
[19] = tested on: Pseudomonas aeruginosa
[20] = tested on: Pseudomonas putida
[21] = tested on: Saccharomyces cerevisiae
[22] = tested on: Salmonella typhimurium ATCC 19430
[23] = tested on: Salmonella typhimurium
[24] = tested on: Serratia marcescens
[25] = tested on: Staphylococcus aureus 1
[26] = tested on: Staphylococcus aureus ATCC 25923
[27] = tested on: Streptococcus mutans
[28] = tested on: Streptococcus pneumoniae
[29] = tested on: Trichophyton rubrum KCTC 6345
[30] = tested on: Trichosporon beigelii KCTC 7707
[31] = tested on: Pseudomonas aeruginosa ATCC 47085
[32] = tested on: Escherichia coli ATCC 25922
[33] = tested on: Escherichia coli DH5alpha
[34] = tested on: Pseudomonas aeruginosa H188
[35] = tested on: Escherichia coli JW3441
[36] = tested on: Escherichia coli JW5831
[37] = tested on: Escherichia coli MG1655

MIC [31]: 12.7 µM (≈ 32 µg/mL) | MIC [26]: 12.7 µM (≈ 32 µg/mL)
SMILES: CC(C)C[C@H](NC(=O)CN)C(=O)N[C@@H](CC(C)C)C(=O)N[C@@H](CCCN=C(N)N)C(=O)N[C@@H](CCCCN)C(=O)N[C@@H](Cc1c[nH]c2ccccc12)C(=O)NCC(=O)N[C@@H](CCCCN)C(=O)N[C@@H](CCCCN)C(=O)N[C@@H](Cc1c[nH]c2ccccc12)C(=O)N[C@@H](CCCCN)C(=O)N[C@@H](CCC(=O)O)C(=O)N[C@@H](Cc1ccccc1)C(=O)N[C@@H](CC(C)C)C(=O)N[C@@H](CCCN=C(N)N)C(=O)N[C@@H](CCCN=C(N)N)C(=O)N[C@H](C(=O)N[C@@H](Cc1c[nH]c2ccccc12)C(=O)N[C@@H](CCCCN)C(N)=O)C(C)C [GLLRKWGKKWKEFLRRVWK]

MIC [32]: 5.37 µM (≈ 16.2 µg/mL) | MIC [33]: 21.5 µM (≈ 64.9 µg/mL) | MIC [16]: 42 µM (≈ 127 µg/mL) | MIC [18]: 42 µM (≈ 127 µg/mL) | MIC [34]: 21.5 µM (≈ 64.9 µg/mL)
SMILES: CC[C@H](C)[C@H](NC(=O)[C@H](C)NC(=O)[C@H](CCCCN)NC(=O)[C@H](CC(C)C)NC(=O)[C@H](C)NC(=O)[C@@H](NC(=O)[C@H](Cc1cnc[nH]1)NC(=O)[C@H](CC(C)C)NC(=O)[C@H](CCC(=O)O)NC(=O)[C@@H](NC(=O)[C@H](CCCCN)NC(=O)[C@H](CCCCN)NC(=O)[C@H](C)NC(=O)[C@H](CO)NC(=O)[C@H](CCCCN)NC(=O)[C@H](Cc1ccccc1)NC(=O)[C@@H](NC(=O)[C@H](CCCCN)NC(=O)[C@H](CC(C)C)NC(=O)[C@H](Cc1ccccc1)NC(=O)[C@H](CO)NC(=O)[C@H](CCCCN)NC(=O)[C@H](Cc1c[nH]c2ccccc12)NC(=O)[C@H](CCCCN)NC(C)=O)[C@@H](C)O)[C@@H](C)O)[C@@H](C)O)C(=O)N[C@@H](CO)C(=O)N[C@@H](CO)C(N)=O [KWKSFLKTFKSAKKTELHTALKAISS]

MIC [35]: 4 µM (≈ 10.7 µg/mL) | MIC [36]: 4 µM (≈ 10.7 µg/mL) | MIC [37]: 4 µM (≈ 10.7 µg/mL)
SMILES: CC[C@H](C)[C@H](NC(=O)[C@H](CCCCN)NC(=O)CNC(=O)[C@H](CC(C)C)NC(=O)[C@H](CC(C)C)NC(=O)[C@H](Cc1cnc[nH]1)NC(=O)[C@H](Cc1ccccc1)NC(=O)[C@@H](N)C(C)C)C(=O)N[C@H](C(=O)N[C@@H](Cc1cnc[nH]1)C(=O)N[C@@H](Cc1cnc[nH]1)C(=O)N[C@H](C(=O)NCC(=O)N[C@@H](CC(N)=O)C(=O)N[C@@H](Cc1ccccc1)C(=O)N[C@H](C(=O)N[C@@H](Cc1ccc(O)cc1)C(=O)NCC(=O)N[C@@H](Cc1ccccc1)C(=O)N[C@@H](CO)C(=O)N[C@@H](Cc1cnc[nH]1)C(=O)N[C@H](C(=O)N[C@@H](Cc1ccccc1)C(N)=O)C(C)C)C(C)C)C(C)C)[C@@H](C)CC [VFHLLGKIIHHVGNFVYGFSHVF]

More lines, now with the values behind:

SMILES: CC[C@H](C)[C@H](NC(=O)CNC(=O)[C@@H](NC(=O)[C@H](Cc1ccccc1)NC(=O)[C@H](CC(=O)O)NC(=O)[C@H](CCSC)NC(=O)[C@H](CC(=O)O)NC(=O)[C@H](C)N)[C@@H](C)O)C(=O)N[C@@H](C)C(=O)N[C@@H](CCC(=O)O)C(=O)N[C@@H](CO)C(=O)N[C@H](C(=O)N[C@H](C(=O)N[C@@H](CCCCN)C(=O)N[C@@H](CCCCN)C(=O)N[C@H](C(=O)N[C@@H](CCCCN)C(=O)N[C@@H](CCC(=O)O)C(=O)N[C@H](C(=O)N[C@@H](CC(N)=O)C(=O)N[C@@H](C)C(=O)N[C@@H](CCCCN)C(=O)N1CCC[C@H]1C(=O)N1CCC[C@H]1C(=O)N[C@@H](C)C(=O)O)[C@@H](C)O)[C@@H](C)CC)[C@@H](C)CC)[C@@H](C)CC [ADMDFTGIAESIIKKIKETNAKPPA]
MIC [1]: ≥ 47.6 µM | MIC [2]: ≥ 47.6 µM | MIC [3]: ≥ 47.6 µM | MIC [4]: ≥ 381 µM | MIC [5]: ≥ 47.6 µM | MIC [6]: ≥ 381 µM

SMILES: CC(C)C[C@H](NC(=O)CNC(=O)[C@H](C)N)C(=O)N[C@@H](CCC(N)=O)C(=O)N[C@@H](Cc1ccccc1)C(=O)N1CCC[C@H]1C(=O)N[C@H](C(=O)NCC(=O)N[C@@H](CCCN=C(N)N)C(=O)N[C@H](C(=O)N[C@@H](Cc1cnc[nH]1)C(=O)N[C@@H](CCCN=C(N)N)C(=O)N[C@@H](CC(C)C)C(=O)N[C@@H](CC(C)C)C(=O)N[C@@H](CCCN=C(N)N)C(=O)N[C@@H](CCCCN)C(=O)O)C(C)C)C(C)C [AGLQFPVGRVHRLLRK]
MIC [7]: ≥ 139 µM | MIC [8]: 2.17 µM (≈ 4 µg/mL) | MIC [9]: 12.5 µM (≈ 23.1 µg/mL) | MIC [10]: 4.33 µM (≈ 8 µg/mL) | MIC [11]: 25 µM (≈ 46.2 µg/mL) | MIC [12]: 4.33 µM (≈ 8 µg/mL) | MIC [13]: 25 µM (≈ 46.2 µg/mL) | MIC [14]: ≥ 139 µM | MIC [15]: 6.3 µM (≈ 11.6 µg/mL) | MIC [16]: 2.17 µM (≈ 4 µg/mL) | MIC [17]: 6.3 µM (≈ 11.6 µg/mL) | MIC [18]: 12.5 µM (≈ 23.1 µg/mL) | MIC [19]: 12.5 µM (≈ 23.1 µg/mL) | MIC [20]: 2.17 µM (≈ 4 µg/mL) | MIC [21]: 4.33 µM (≈ 8 µg/mL) | MIC [22]: 6.3 µM (≈ 11.6 µg/mL) | MIC [23]: 1.08 µM (≈ 2 µg/mL) | MIC [24]: 1.08 µM (≈ 2 µg/mL) | MIC [25]: 12.5 µM (≈ 23.1 µg/mL) | MIC [26]: 25 µM (≈ 46.2 µg/mL) | MIC [27]: 2.17 µM (≈ 4 µg/mL) | MIC [28]: 2.17 µM (≈ 4 µg/mL) | MIC [29]: 12.5 µM (≈ 23.1 µg/mL) | MIC [30]: 12.5 µM (≈ 23.1 µg/mL)
